{"source": "patent US20100160351A1", "about": "“PHARMACEUTICAL COMPOSITIONS AND METHODS FOR TREATING HYPERURICEMIA AND RELATED DISORDERS” (NUON THERAPEUTICS, INC., priority 2008, published 2010)", "test_system": "serum uric acid (sUA) levels", "assay": "Study A3006GT: phase 2 crossover, sUA in healthy subjects with screening sUA of at least 7.1 mg/dL; tranilast, febuxostat, combination", "assay_type": "in vivo, human", "protocol": "Study A3006GT was a phase 2, randomized, double-blind, 3-period, 3-treatment crossover trial. The primary objective was to compare the effects of three treatments on serum uric acid (sUA) levels in healthy subjects with a screening sUA level of at least 7.1 mg/dL. The three treatments were: 300 mg QD tranilast and 40 mg QD febuxostat (C); 300 mg QD tranilast alone (T); 40 mg QD febuxostat alone (F).\nThe study was conducted in 23 subjects. […] With two exceptions, every subject provided data for all three treatments. Subject 1001 completed only the first two periods of the study (C and F). […] Therefore, the period 3 data for subject 1024 are excluded from the analyses presented here.\nTwo endpoints were considered: change from baseline to day 7 in sUA; and percent change from baseline to day 7 in sUA. For each endpoint, an analysis of variance (ANOVA) model for a three-period crossover trial was used. The model included effects for sequence, subject within sequence, treatment, and period. The sequence effect was tested using the subject within sequence mean square as the error term. Two pairwise comparisons between treatments were tested: C−F and C−T. In addition, the two-sided 95% confidence interval for each of these differences was computed.\nFor each subject for which results were available from all three treatments, the difference between the change for C and the sum of the changes for F and T was computed. Although the true magnitude of the difference between these two values is not known, a conservative null hypothesis is that this difference should be equally likely to be greater than or less than zero. The sign test and the Wilcoxon signed rank test were used to test this null hypothesis.\nUsing the change for each subject as the dependent variable, an analysis of variance (ANOVA) model for a three-period crossover trial was fit. This model included effects for sequence, subject within sequence, treatment, and period. Using the least squares estimates of the mean changes for each treatment, along with the 3×3 covariance matrix of these three estimates, the mean and SD of the difference between C and F+T was estimated, as follows.", "key": {"[1]": {"details": "end of 1-week treatment (day 7), C: 300 mg QD tranilast + 40 mg QD febuxostat, T: 300 mg QD, F: 40 mg QD"}, "[2]": {"details": "individual subjects, per study period, end of the 1-week treatment period"}}, "note": "Several values for one entry are separate records, joined by “and”; a condition that tells them apart may be missing. Equal values may be shown once."}
{"smiles": "COc1ccc(/C=C/C(=O)Nc2ccccc2C(=O)O)cc1OC", "note": "[Tranilast, 2-[[3-(3,4-dimethoxyphenyl)-1-oxo-2-propenyl]amino]benzoic acid]", "values": [{"measurement": "sUA Change from Baseline, Max", "setting": "[1]", "result": -0.90, "unit": "mg/dL"}, {"measurement": "sUA Change from Baseline, Mean", "setting": "[1]", "result": -1.60, "unit": "mg/dL"}, {"measurement": "sUA Change from Baseline, Median", "setting": "[1]", "result": -1.40, "unit": "mg/dL"}, {"measurement": "sUA Change from Baseline, Min", "setting": "[1]", "result": -3.50, "unit": "mg/dL"}, {"measurement": "sUA Percent Change from Baseline, Max", "setting": "[1]", "result": "−9.47", "unit": "%"}, {"measurement": "sUA Percent Change from Baseline, Mean", "setting": "[1]", "result": "−21.20", "unit": "%"}, {"measurement": "sUA Percent Change from Baseline, Median", "setting": "[1]", "result": "−18.61", "unit": "%"}, {"measurement": "sUA Percent Change from Baseline, Min", "setting": "[1]", "result": "−47.95", "unit": "%"}, {"measurement": "sUA Change from baseline", "setting": "[2]", "result": "−1.4 mg/dL (2×) and −1.1 mg/dL (3×) and −2.1 mg/dL and −2.2 mg/dL (2×) and −1.7 mg/dL (3×) and −1.9 mg/dL and −0.9 mg/dL (2×) and −1.2 mg/dL (3×) and −1.0 mg/dL (2×) and −3.2 mg/dL and −3.5 mg/dL and −1.6 mg/dL"}, {"measurement": "sUA Percent Change from baseline", "setting": "[2]", "result": "−17.50% and −14.86% and −30.43% and −27.85% and −16.42% and −26.98% and −22.09% and −13.64% and −9.47% and −26.15% and −16.00% and −14.29% (2×) and −10.87% and −30.14% and −14.46% and −35.56% and −47.95% and −20.51% and −19.72% and −15.38% and −21.79%"}]}
